Reference: ChEMBL document CHEMBL1201862, “PubChem BioAssay data set” (2004)
Blank lines part the entries; values can stand above or below the molecule they belong to. Active and inactive are the calls of the source.

Experiments:
[1] = HEp-2 cell cytotoxicity, dose response, cytotoxicity control for RSV inhibitor project, HTS (AID 2410); format: functional; details: human respiratory syncytial virus
H9c2 = assay: cells; format: functional, cell-based; details: Rattus norvegicus, H9c2, Myocardium;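 also: confirmatory concentration-response retest of ultra-high-throughput screening hits for modulation of myocardial damage; cell death induced by hydrogen peroxide oxidative stress; compound pretreatment for 60 min then peroxide exposure for 2 h; potency is for protecting the cells against peroxide damage rather than for killing them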
[2] = molecular target: Glyceraldehyde-3-phosphate dehydrogenase (Homo sapiens, UniProt P04406)
Glyceraldehyde-3-phosphate dehydrogenase, sequence (P04406 whole entry): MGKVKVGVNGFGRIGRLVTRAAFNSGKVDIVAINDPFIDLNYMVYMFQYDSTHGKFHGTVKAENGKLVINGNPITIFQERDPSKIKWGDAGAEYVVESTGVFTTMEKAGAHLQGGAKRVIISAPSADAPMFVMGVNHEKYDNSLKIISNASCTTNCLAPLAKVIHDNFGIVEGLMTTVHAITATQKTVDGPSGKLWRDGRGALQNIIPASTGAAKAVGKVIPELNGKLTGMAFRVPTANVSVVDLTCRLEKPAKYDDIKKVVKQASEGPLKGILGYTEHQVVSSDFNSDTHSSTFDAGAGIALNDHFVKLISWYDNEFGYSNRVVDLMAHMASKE

Large T antigen = Large T antigen (Simian virus 40, UniProt P03070); format: functional, Betapolyomavirus macacae;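 also: Confirmatory-stage PubChem screen for compounds that inhibit SV40 T antigen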
Large T antigen, sequence (P03070 whole entry): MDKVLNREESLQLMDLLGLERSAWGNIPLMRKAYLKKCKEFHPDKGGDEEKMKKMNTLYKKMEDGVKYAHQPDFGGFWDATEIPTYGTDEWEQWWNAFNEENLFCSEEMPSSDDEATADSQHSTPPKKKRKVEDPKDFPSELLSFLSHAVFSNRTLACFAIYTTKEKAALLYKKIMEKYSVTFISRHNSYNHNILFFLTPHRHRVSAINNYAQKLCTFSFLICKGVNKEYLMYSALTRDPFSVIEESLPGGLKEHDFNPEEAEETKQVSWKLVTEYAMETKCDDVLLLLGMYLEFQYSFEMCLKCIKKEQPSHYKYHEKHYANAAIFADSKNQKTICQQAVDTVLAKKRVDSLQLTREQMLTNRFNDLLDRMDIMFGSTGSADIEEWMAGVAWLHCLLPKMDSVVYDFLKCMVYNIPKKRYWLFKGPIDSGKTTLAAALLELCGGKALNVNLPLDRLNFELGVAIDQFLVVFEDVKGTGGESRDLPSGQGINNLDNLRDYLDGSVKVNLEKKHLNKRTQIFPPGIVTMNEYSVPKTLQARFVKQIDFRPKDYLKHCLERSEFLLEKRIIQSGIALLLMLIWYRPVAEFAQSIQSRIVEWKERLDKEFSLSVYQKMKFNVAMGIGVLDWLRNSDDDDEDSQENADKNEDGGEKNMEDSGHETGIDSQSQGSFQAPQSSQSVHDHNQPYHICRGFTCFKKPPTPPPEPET

[3] = molecular target: FAD-linked sulfhydryl oxidase ALR (Homo sapiens, UniProt P55789); assay: inhibitors of human ALR sulfhydryl oxidase, dose response, biochemical, H2O2 detection, luminescence, cherry-pick (AID 493248)
FAD-linked sulfhydryl oxidase ALR, sequence (P55789 whole entry): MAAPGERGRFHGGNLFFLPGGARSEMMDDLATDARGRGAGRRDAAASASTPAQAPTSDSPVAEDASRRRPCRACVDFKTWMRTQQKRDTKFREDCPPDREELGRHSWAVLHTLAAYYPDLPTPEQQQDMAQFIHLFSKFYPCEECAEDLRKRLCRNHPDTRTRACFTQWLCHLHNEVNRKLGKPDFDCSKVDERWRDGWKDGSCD

[4] = molecular target: T1, Rac GTPase-activating protein 1 (Homo sapiens, UniProt Q9H0H5); assay: MgcRacGAP GTPase-activating activity inhibitors, confirmation, biochemical, ADP Hunter fluorescence, primary and confirmatory (AID 624330); format: functional
T1 sequence (Q9H0H5 whole entry): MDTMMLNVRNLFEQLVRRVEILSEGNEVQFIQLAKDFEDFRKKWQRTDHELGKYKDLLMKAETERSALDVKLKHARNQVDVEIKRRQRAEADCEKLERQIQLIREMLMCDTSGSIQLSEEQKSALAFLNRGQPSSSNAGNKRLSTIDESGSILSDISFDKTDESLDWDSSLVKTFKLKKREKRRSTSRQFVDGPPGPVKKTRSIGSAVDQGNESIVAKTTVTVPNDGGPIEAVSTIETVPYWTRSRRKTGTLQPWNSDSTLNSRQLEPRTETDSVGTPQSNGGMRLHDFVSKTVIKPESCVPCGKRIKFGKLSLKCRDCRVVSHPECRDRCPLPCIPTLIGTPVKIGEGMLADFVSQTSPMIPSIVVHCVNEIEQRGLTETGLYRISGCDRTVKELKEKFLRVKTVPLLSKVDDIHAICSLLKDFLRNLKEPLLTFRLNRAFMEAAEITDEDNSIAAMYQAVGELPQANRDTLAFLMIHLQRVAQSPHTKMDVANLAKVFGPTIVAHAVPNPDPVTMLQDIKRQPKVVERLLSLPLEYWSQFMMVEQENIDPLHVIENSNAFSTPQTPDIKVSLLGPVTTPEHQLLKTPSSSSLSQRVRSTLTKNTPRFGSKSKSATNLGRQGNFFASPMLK

Leucine aminopeptidase = molecular target: T2, Leucine aminopeptidase (Plasmodium falciparum 3D7, UniProt Q8IL11); assay: P. falciparum M17LAP inhibitors, primary screen, biochemical, fluorogenic H-Leu-NHMec substrate, 1536-well (AID 1619); format: functional
T2 sequence (Q8IL11 whole entry): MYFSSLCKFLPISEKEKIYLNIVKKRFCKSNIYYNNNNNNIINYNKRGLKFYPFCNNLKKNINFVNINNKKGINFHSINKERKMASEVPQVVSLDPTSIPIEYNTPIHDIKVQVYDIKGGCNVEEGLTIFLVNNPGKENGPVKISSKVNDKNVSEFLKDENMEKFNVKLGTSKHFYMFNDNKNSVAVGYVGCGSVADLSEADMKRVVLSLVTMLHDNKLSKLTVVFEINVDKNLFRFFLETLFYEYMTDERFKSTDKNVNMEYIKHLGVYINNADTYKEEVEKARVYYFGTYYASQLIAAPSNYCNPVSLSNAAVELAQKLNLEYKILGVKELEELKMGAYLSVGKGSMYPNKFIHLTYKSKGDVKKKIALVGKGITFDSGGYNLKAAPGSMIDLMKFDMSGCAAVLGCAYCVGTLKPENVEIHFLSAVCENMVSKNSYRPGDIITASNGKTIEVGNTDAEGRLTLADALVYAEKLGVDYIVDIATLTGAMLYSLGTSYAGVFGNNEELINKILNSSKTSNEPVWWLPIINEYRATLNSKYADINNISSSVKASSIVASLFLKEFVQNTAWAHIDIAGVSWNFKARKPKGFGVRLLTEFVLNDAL

P388/ADR = assay: cells; format: functional; details: Mus musculus
SN12K1 = assay: cells; format: functional; details: Homo sapiens
P388 = assay: cells; format: functional; details: Mus musculus
[5] = molecular target: T3, Heat shock factor protein 1 (Mus musculus, UniProt P38532); assay: HSF1 potentiators in luciferase reporter cells, confirmation, cell-based, NIH3T3, luminescence, dose retest (AID 435004); format: functional;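 also: stress induced by proteasome inhibitor MG132 added 30 min after compound; luciferase reporter driven by HSF1 response element in NIH3T3 cells; actives raise luminescence as potentiators of the MG132 stress response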
T3 sequence (P38532 whole entry): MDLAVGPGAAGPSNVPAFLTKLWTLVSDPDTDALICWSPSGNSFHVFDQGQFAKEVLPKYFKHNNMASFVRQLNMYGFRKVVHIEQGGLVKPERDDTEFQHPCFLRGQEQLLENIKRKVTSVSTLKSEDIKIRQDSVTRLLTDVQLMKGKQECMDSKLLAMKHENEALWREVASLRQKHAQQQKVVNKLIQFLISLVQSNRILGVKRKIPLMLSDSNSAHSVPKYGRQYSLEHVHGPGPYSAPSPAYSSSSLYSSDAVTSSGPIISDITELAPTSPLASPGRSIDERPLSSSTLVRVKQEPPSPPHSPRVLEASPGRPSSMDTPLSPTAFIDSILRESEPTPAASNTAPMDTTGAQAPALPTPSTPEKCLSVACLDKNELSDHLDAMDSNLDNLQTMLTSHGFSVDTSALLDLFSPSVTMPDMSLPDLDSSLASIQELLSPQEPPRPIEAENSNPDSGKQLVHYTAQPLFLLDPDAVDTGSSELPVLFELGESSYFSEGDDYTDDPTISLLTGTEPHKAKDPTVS

[6] = molecular target: T4, Mannose-6-phosphate isomerase (Homo sapiens, UniProt P34949); assay: human PMI inhibitors, high substrate, primary screen, biochemical, fluorescence intensity, high mannose 6-phosphate (AID 1220)
T4 sequence (P34949 whole entry): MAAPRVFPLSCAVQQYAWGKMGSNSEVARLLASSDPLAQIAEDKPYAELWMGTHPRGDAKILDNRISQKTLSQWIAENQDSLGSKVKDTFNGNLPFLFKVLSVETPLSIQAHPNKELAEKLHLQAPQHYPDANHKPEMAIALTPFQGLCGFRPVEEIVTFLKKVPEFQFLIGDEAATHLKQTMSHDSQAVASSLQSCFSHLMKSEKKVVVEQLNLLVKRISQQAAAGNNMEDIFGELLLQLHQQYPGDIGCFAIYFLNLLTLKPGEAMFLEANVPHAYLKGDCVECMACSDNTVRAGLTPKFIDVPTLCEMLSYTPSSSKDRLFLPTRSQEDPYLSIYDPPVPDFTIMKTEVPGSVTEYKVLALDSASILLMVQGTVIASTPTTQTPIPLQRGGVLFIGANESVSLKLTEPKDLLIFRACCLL

Vero = Vero cell cytotoxicity, cytotoxicity control for flavivirus capping enzyme inhibitors (AID 588742); format: functional; details: Chlorocebus sabaeus
[7] = P. falciparum 3D7-ScDHODH growth inhibitors, dose response, SYBR Green, dry powder samples (AID 1159570); format: functional, cell-based;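 also: parasite growth measured after 72 hours of compound exposure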
[8] = P. falciparum Dd2 growth inhibitors, dose response, SYBR Green, cherry-picked samples (AID 1159567); format: functional, cell-based
[9] = P. falciparum Dd2 growth inhibitors, dose response, SYBR Green, dry powder samples (AID 1159566); format: functional, cell-based;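 also: potency for growth inhibition with lower SYBR green DNA signal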
[10] = P. falciparum ATP4 D1247Y mutant growth inhibitors, dose response, NITD609-resistant line, SYBR Green, dry powder (AID 1159571); format: functional, cell-based;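 also: parasites synchronized at ring stage by sorbitol before testing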
Cytochrome P450 2D6 = Cytochrome P450 2D6 (Homo sapiens, UniProt P10635);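 also: CYP2D6 member of a cytochrome P450 panel assay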
Cytochrome P450 2D6, sequence (P10635 whole entry, the tested form may be a part): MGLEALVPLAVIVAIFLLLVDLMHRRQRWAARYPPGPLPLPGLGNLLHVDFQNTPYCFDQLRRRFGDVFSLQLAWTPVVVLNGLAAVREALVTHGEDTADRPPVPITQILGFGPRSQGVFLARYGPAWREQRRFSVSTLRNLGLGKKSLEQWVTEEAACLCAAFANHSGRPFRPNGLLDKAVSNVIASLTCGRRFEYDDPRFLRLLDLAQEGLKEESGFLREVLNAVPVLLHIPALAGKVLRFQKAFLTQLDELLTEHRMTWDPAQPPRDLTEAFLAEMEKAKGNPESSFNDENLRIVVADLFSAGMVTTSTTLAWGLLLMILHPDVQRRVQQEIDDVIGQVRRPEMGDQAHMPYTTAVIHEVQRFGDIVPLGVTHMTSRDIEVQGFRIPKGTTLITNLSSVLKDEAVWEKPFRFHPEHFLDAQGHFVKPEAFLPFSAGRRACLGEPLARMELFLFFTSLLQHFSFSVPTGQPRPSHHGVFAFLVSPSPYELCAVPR

[11] = molecular target: T5, Carboxy-terminal domain RNA polymerase II polypeptide A small phosphatase 1 (Homo sapiens, UniProt Q9GZU7); assay: inhibitors of CTDSP1, concentration-response testing, biochemical assay, absorbance-based, actives from ultra-high-throughput screening (AID 540297); format: functional
T5 sequence (Q9GZU7 whole entry): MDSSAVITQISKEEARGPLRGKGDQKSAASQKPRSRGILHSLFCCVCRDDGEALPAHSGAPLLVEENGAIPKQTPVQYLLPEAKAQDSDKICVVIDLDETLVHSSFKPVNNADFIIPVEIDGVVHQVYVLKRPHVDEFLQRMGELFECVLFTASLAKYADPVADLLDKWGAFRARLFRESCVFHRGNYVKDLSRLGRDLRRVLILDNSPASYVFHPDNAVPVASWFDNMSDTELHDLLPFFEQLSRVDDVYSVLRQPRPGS

Compound: c1cncc(-c2nc(NCC3COc4ccccc4O3)c3ccccc3n2)c1 (configuration not stated)
CC50 [1]: 10.2 µM (active)
IC50 (H9c2): > 79 µM (inactive)

Compound: O=C(/C=C/c1ccc(Cl)c([N+](=O)[O-])c1)Nc1cccnc1
IC50 (H9c2): > 79 µM (inactive)

Compound: COc1ccc(Cl)cc1NC(=O)CCS(=O)(=O)c1cc2c(cc1C)NC(=O)CO2
IC50 (H9c2): > 79 µM (inactive)

IC50 [2]: > 50 µM (inconclusive)
Compound: Cc1ccc(N2C(=O)C(Cl)=C(N3CCN(c4ccccc4)CC3)C2=O)cc1

Compound: O=C(CN1CCN(Cc2ccccc2)CC1)Nc1ccc([N+](=O)[O-])cc1C(=O)Nc1ccccc1F
IC50 (H9c2): > 79 µM (inactive)

IC50 (Large T antigen): > 100 µM (active)
AC50 [3]: 0.108 µM (active)
IC50 [4]: 30.8 µM (active)
Compound: Cc1cc(NS(=O)(=O)c2ccc(Nc3nc(-c4ccc(O)cc4)cs3)cc2)no1

IC50 (Leucine aminopeptidase): 13.9 µM (active)
Compound: CCOC(=O)COc1ncn(-c2ccccc2)n1

IC50 [2]: > 50 µM (inconclusive)
Compound: COc1ccc(N2CCN(C3=C(Cl)C(=O)N(c4ccc(Cl)nc4)C3=O)CC2)cc1

Compound: O=C(Nc1ccc(C2=NCCN2)cc1)c1cncc(C(=O)Nc2ccc(C3=NCCN3)cc2)c1
GI50 (P388/ADR): > 100 µM (inactive)
GI50 (SN12K1): > 100 µM (inactive)
GI50 (P388): 24.2 µM (inactive)

Compound: Cc1cc(C)n2nc(C(=O)N/N=C/c3c4ccccc4cc4ccccc34)nc2n1
EC50 [5]: > 260 µM (inactive)
IC50 (H9c2): > 79 µM (inactive)

Compound: CCC1CN2CCC1CC2 (configuration not stated)
GI50 (P388/ADR): > 100 µM (inactive)
GI50 (SN12K1): > 100 µM (inactive)
GI50 (P388): 80.4 µM (inactive)

Compound: COc1ccc(C(=O)O/N=C(/c2ccccc2)c2ccncc2)cc1OC
IC50 (H9c2): 6.72 µM (active)

Compound: C[C@H]1[C@@H]2C[C@@H]3O[C@@]34[C@H]3CCC5Cc6nc7c(nc6C[C@@]5(C)[C@]3(O)CC(=O)[C@@]24CO[C@]12OC(C)(C)C[C@@H]2O)CC1CC[C@@H]2C3=C[C@H]4O[C@@]5(OC(C)(CO)C[C@@H]5O)[C@H](C)[C@@]4(O)[C@]3(C)[C@@H](O)CC2[C@]1(C)C7 (some centres not stated)
GI50 (P388/ADR): 0.0718 µM (active)
GI50 (SN12K1): 0.00221 µM (active)
GI50 (P388): 0.0017 µM (active)

IC50 (Leucine aminopeptidase): 11.5 µM (active)
Compound: S=c1[nH]c(-c2ccccc2)nn1-c1ccccc1

IC50 (Leucine aminopeptidase): 34.1 µM (active)
Compound: O=C(O)c1cccc(Cn2c(Cl)c(/C=N/NC(=O)c3ccccc3Cl)sc2=O)c1

IC50 [6]: > 50 µM (not active)
IC50 [4]: 20 µM (active)
Compound: COc1ccc2c(c1)-c1nc(/N=C/c3ccccc3O)sc1CC2
CC50 (Vero): > 40 µM (active)

Compound: COc1ccccc1S(=O)(=O)N(C)C[C@H]1OCc2ccccc2-c2c(n(C)c3ccccc23)C(=O)N([C@@H](C)CO)C[C@@H]1C
AC50 [7]: 2.03 µM (active)
AC50 [8]: 2.1 µM (active)
AC50 [9]: 1.09 µM (active)
AC50 [10]: 1.02 µM (active)

Compound: CCCC#Cc1ccc2c(c1)O[C@H](CN(C)C(=O)Nc1ccc(OC)cc1)[C@H](C)CN([C@H](C)CO)S2(=O)=O
AC50 [7]: 1.37 µM (active)
AC50 [8]: 1.94 µM (active)
AC50 [9]: 1.82 µM (active)
AC50 [10]: 1.45 µM (active)

Compound: CC(C)NC(=O)N1[C@@H](CO)[C@@H](c2ccccc2)C12CN(Cc1ccc(F)cc1)C2
AC50 [7]: 4 µM (active)
AC50 [8]: 3.25 µM (active)
AC50 [9]: 1.95 µM (active)
AC50 [10]: 2.17 µM (active)

Compound: O=C(C1CCCC1)N1CC(=O)N2[C@H](CO)[C@H](c3ccc(-c4cccnc4)cc3)[C@H]2C1
AC50 [7]: 2.33 µM (active)
AC50 [8]: 1.47 µM (active)
AC50 [9]: 1.11 µM (active)
AC50 [10]: 1.85 µM (active)

Compound: C[C@@H]1CN([C@@H](C)CO)C(=O)c2cccc(NC(=O)c3nc4ccccc4s3)c2O[C@H]1CN(C)C(=O)Nc1ccc2c(c1)OCO2
AC50 [7]: 0.985 µM (active)
AC50 [8]: 2.35 µM (active)
AC50 [9]: 1.37 µM (active)
AC50 [10]: 1.18 µM (active)

Compound: COC(=O)[C@@H]1c2cc3c(c(O)c2[C@@H](OC)C[C@@]1(C)O)C(=O)c1c(O)cc2c(c1C3=O)OC1O[C@@]2(C)[C@H](O)[C@@H](N(C)C)[C@@H]1O
GI50 (P388/ADR): 1.29 µM (inactive)
GI50 (SN12K1): 0.352 µM (active)
GI50 (P388): 0.092 µM (active)

IC50 [2]: > 100 µM (not active)
Compound: CCOc1ccc(Cl)cc1S(=O)(=O)Nc1cccnc1

IC50 (Large T antigen): 1.93 µM (active)
AC50 (Cytochrome P450 2D6): 39.8 µM (inconclusive)
Compound: O=C(O)C1=CC(=C(c2ccc(O)c(C(=O)O)c2)c2ccc(O)c(C(=O)O)c2)C=CC1=O [AURINTRICARBOXYLIC ACID]

Compound: C[C@H](CCC(=O)O)[C@H]1CC[C@H]2[C@@H]3CC[C@@H]4C[C@H](O)CC[C@]4(C)[C@H]3CC[C@]12C [LITHOCHOLIC ACID]
IC50 (Large T antigen): 26.1 µM (active)
IC50 [11]: 4.82 µM (active)

Compound: Cn1c2ccccc2c(=O)c2c(O)cc3c(c21)C=CC(C)(C)O3 [NORACRONYCINE]
GI50 (P388/ADR): > 25 µM (inactive)
GI50 (SN12K1): > 25 µM (inactive)
GI50 (P388): > 25 µM (inactive)

Compound: O=C(O)CCCCCCCCC(=O)O [SEBACIC ACID]
GI50 (P388/ADR): > 500 µM (inactive)
GI50 (SN12K1): > 500 µM (inactive)
GI50 (P388): 316 µM (inactive)
